Patent publication US6800652B2, “Diaryl compounds” (Pfizer Inc., priority 2002, dated 2004)

Tests used:
Assay type in all cases: cell-based
[1] = biological target: T1, dopamine transporter (hDAT) (Homo sapiens, UniProt Q01959); experiment: Inhibition of 3H-dopamine uptake in HEK-293 cells stably transfected with hDAT; conditions: HEK-293 hDAT cells, 3H-Dopamine 200 nM, 5 min incubation, room temperature; read-out: DRI (dopamine re-uptake inhibition) IC50
T1 construct: expressed in transfected cells
T1 sequence (Q01959 whole entry): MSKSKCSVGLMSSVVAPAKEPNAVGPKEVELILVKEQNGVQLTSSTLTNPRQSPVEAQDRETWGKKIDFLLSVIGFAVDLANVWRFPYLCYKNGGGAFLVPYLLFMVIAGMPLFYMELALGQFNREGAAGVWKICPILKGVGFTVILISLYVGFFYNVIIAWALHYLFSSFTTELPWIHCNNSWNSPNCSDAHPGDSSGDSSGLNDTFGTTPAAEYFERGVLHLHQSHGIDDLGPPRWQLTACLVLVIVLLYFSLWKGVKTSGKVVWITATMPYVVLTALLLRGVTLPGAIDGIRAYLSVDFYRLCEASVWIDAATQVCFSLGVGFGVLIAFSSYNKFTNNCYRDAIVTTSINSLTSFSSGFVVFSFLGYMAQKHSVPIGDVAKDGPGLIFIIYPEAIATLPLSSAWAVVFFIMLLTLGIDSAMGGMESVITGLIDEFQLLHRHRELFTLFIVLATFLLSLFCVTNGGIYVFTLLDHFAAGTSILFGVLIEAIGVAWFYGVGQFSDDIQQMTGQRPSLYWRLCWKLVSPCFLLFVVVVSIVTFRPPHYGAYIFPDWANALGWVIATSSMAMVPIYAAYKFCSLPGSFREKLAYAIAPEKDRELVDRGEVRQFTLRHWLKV
Method: (§1) Human embryonic kidney cells (HEK-293) stably transfected with either the human serotonin transporter (hSERT), noradrenaline transporter (hNET) or dopamine transporter (hDAT) were cultured under standard cell culture techniques (cells were grown at 37° C. and 5% CO2 in DMEM-culture media (supplemented with 10% dialysed foetal calf serum (FCS), 2 mM I-glutamine and 250 μg/ml geneticin)). Cells were harvested for the assay to yield a cell suspension of 750,000 cells/ml.
(§2) All test compounds were dissolved in 100% DMSO and diluted down in assay buffer to give appropriate test concentrations. Assays were carried out in 96-well filter bottom plates. Cells (7500 cells/assay well) were pre-incubated in standard assay buffer containing either test compound, standard inhibitor or compound vehicle (1% DMSO) for 5 minutes. Reactions were started by addition of either ^3H-Serotonin, ^3H-Noradrenaline or ^3H-Dopamine substrates. All reactions were carried out at room temperature in a shaking incubator. Incubation times were 5 minutes for the hSERT and hDAT assays and 15 minutes for the hNET assay. […] The quantity of ^3H-substrate incorporated into the cells was then quantified.
(§3) Assay plates were dried in a microwave oven, scintillation fluid added, and radioactivity measured. […]

[2] = biological target: T2, human serotonin transporter (hSERT) (Homo sapiens, UniProt P31645); experiment: Inhibition of 3H-serotonin uptake in HEK-293 cells stably transfected with hSERT; conditions: HEK-293 hSERT cells, 3H-5HT 50 nM, 5 min incubation, room temperature; read-out: SRI (serotonin re-uptake inhibition) IC50
T2 construct: expressed in transfected cells
T2 sequence (P31645 whole entry): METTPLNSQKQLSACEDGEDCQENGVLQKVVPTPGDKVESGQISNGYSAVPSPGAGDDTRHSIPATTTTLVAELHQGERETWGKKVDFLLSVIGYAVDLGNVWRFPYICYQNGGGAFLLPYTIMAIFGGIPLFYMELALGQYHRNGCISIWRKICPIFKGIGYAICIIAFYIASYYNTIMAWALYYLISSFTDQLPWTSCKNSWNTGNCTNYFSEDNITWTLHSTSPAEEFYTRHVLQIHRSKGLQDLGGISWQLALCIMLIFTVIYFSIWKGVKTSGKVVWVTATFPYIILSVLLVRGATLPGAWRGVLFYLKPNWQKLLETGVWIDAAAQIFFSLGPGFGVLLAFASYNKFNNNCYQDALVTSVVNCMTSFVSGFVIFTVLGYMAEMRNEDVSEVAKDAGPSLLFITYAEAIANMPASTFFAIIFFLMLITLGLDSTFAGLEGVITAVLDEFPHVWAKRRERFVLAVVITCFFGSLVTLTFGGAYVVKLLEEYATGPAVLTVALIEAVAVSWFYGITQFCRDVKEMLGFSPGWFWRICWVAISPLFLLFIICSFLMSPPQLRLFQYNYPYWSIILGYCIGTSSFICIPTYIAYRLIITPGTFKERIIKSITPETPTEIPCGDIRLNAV
Method: A number of compounds were tested for biological activity by their ability to inhibit the uptake of serotonin by human serotonin transporters as follows.
as §1
as §2, with “incubator.” for “incubator. Incubation times were 5 minutes for the hSERT and hDAT assays and 15 minutes for the hNET assay.”
as §3

[3] = biological target: T3, noradrenaline transporter (hNET) (Homo sapiens, UniProt P23975); experiment: Inhibition of 3H-noradrenaline uptake in HEK-293 cells stably transfected with hNET; conditions: HEK-293 hNET cells, 3H-Noradrenaline 200 nM, 15 min incubation, room temperature; read-out: NRI (noradrenaline re-uptake inhibition) IC50
T3 construct: expressed in transfected cells
T3 sequence (P23975 whole entry): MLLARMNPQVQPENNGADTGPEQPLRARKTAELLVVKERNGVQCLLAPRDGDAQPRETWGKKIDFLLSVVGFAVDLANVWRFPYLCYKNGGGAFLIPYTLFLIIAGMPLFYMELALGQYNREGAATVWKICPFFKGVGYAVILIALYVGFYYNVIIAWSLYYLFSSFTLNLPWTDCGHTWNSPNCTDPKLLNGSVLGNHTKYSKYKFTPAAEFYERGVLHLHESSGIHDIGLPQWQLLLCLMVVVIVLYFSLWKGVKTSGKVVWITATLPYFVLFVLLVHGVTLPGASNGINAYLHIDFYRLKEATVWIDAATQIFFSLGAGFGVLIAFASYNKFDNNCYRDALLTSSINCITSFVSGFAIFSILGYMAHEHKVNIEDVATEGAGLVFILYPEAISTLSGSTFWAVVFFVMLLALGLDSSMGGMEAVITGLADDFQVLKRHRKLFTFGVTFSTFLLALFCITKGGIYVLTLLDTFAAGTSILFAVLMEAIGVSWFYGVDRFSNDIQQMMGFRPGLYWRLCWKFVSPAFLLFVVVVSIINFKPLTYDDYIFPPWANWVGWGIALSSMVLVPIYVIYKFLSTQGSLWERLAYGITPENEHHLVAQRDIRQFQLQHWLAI
Method: as §1, §2, §3

IC50 [1]: 11700 nM
IC50 [2]: 2.2 nM
IC50 [3]: 564 nM
SMILES: CSc1ccc(Sc2ccncc2CN(C)C)cc1 [Example 2, N,N-Dimethyl-N-[(4-{[4-(methylsulfanyl)phenyl]sulfanyl}-3-pyridinyl)methyl]amine]
